Test in all cases: relative viability (nuclei count vs DMSO), 5 days (fraction); higher = more cells survive
Compound in the assay “Doramapimod + Foretinib”: Cc1ccc(-n2nc(C(C)(C)C)cc2NC(=O)Nc2ccc(OCCN3CCOCC3)c3ccccc23)cc1 [Doramapimod] + COc1cc2c(Oc3ccc(NC(=O)C4(C(=O)Nc5ccc(F)cc5)CC4)cc3F)ccnc2cc1OCCCN1CCOCC1 [Foretinib] (partner 0.25 µM)
In a few lines:
(§1)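 Nuclei were stained with Hoechst during a one-step fixation (final 0.05% Triton X-100, 1% formaldehyde, 1 ug/ml Hoechst) carried out 5 days after dosing, then counted on 4× images. The cells, lung cancer lines in 1536-well plates, had been dosed by pin tool the day after seeding with one drug alone or a fixed anchor-drug dose plus five library-drug doses (not always all listed) in √10 steps. Relative viability is the nuclei count in treated wells divided by that in vehicle wells, and each value is the median of duplicate plates.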

Compound in the assay “RAF265 + Alpelisib”: Cn1c(Nc2ccc(C(F)(F)F)cc2)nc2cc(Oc3ccnc(-c4ncc(C(F)(F)F)[nH]4)c3)ccc21 [RAF265] + Cc1nc(NC(=O)N2CCC[C@H]2C(N)=O)sc1-c1ccnc(C(C)(C)C(F)(F)F)c1 [Alpelisib] (partner 2 µM)
An outline of the steps:
as §1

Compound in the assay “IPA-3 + Pemetrexed”: C1=CC=C2C(=C1)C=CC(=C2SSC3=C(C=CC4=CC=CC=C43)O)O [IPA-3] + Nc1nc2[nH]cc(CCc3ccc(C(=O)N[C@@H](CCC(=O)O)C(=O)O)cc3)c2c(=O)[nH]1 [Pemetrexed] (partner 0.2 µM)
In a few lines:
as §1

Compound in the assay “Doramapimod + Pictilisib”: Cc1ccc(-n2nc(C(C)(C)C)cc2NC(=O)Nc2ccc(OCCN3CCOCC3)c3ccccc23)cc1 [Doramapimod] + CS(=O)(=O)N1CCN(Cc2cc3nc(-c4cccc5[nH]ncc45)nc(N4CCOCC4)c3s2)CC1 [Pictilisib] (partner 1 µM)
An outline of the steps:
as §1

On to NCI-H3122, for which the relative viability with Doramapimod + Foretinib (first compound 0.02 µM) came to 0.921; in the assay with Doramapimod + Foretinib (first compound 0.06325 µM), 0.911; in the assay with Doramapimod + Foretinib (first compound 0.2 µM), 0.922; with Doramapimod + Foretinib (first compound 0.6325 µM), 0.963; with Doramapimod + Foretinib (first compound 2 µM), 0.993; with RAF265 + Alpelisib (first compound 0.01 µM), 0.909. In addition, the relative viability with RAF265 + Alpelisib (first compound 0.03162 µM) is 0.868; in the assay with RAF265 + Alpelisib (first compound 0.1 µM), 0.783; with RAF265 + Alpelisib (first compound 0.3162 µM), 0.559; with RAF265 + Alpelisib (first compound 1 µM), 0.417; in the assay with IPA-3 + Pemetrexed (first compound 0.2 µM), 0.189; in the assay with IPA-3 + Pemetrexed (first compound 0.6325 µM), 0.197. In addition, the relative viability with IPA-3 + Pemetrexed (first compound 2 µM) was 0.192; in the assay with IPA-3 + Pemetrexed (first compound 6.325 µM), 0.207; with IPA-3 + Pemetrexed (first compound 20 µM), 0.211; in the assay with Doramapimod + Pictilisib (first compound 0.02 µM), 0.578; with Doramapimod + Pictilisib (first compound 0.06325 µM), 0.548; with Doramapimod + Pictilisib (first compound 0.2 µM), 0.586. Also, the relative viability is 0.694 with Doramapimod + Pictilisib (first compound 0.6325 µM) and 0.65 with Doramapimod + Pictilisib (first compound 2 µM).
With PC-3 [JPC-3], the relative viability with Doramapimod + Foretinib (first compound 0.02 µM) worked out at 1.14; with Doramapimod + Foretinib (first compound 0.06325 µM), 1.11; with Doramapimod + Foretinib (first compound 0.2 µM) it was 1.15; in the assay with Doramapimod + Foretinib (first compound 0.6325 µM), 1.23; with Doramapimod + Foretinib (first compound 2 µM), 1.1; with RAF265 + Alpelisib (first compound 0.01 µM), 1. Besides, the relative viability with RAF265 + Alpelisib (first compound 0.03162 µM) came out at 0.993; with RAF265 + Alpelisib (first compound 0.1 µM), 1.08; with RAF265 + Alpelisib (first compound 0.3162 µM), 0.331; in the assay with RAF265 + Alpelisib (first compound 1 µM), 0.644; in the assay with IPA-3 + Pemetrexed (first compound 0.2 µM), 1.12; with IPA-3 + Pemetrexed (first compound 0.6325 µM), 1.23. In addition, the relative viability with IPA-3 + Pemetrexed (first compound 2 µM) turned out to be 1.18; with IPA-3 + Pemetrexed (first compound 6.325 µM) it was 1.03; with IPA-3 + Pemetrexed (first compound 20 µM) it was 1.03; in the assay with Doramapimod + Pictilisib (first compound 0.02 µM) it was 0.809; in the assay with Doramapimod + Pictilisib (first compound 0.06325 µM) it was 0.772; with Doramapimod + Pictilisib (first compound 0.2 µM), 0.771. Besides, the relative viability with Doramapimod + Pictilisib (first compound 0.6325 µM) came to 0.897; with Doramapimod + Pictilisib (first compound 2 µM), 0.421.
PC-14: the relative viability was determined as 0.939 in the assay with Doramapimod + Foretinib (first compound 0.02 µM); 1.03 with Doramapimod + Foretinib (first compound 0.06325 µM); 0.997 with Doramapimod + Foretinib (first compound 0.2 µM); 1.13 with Doramapimod + Foretinib (first compound 0.6325 µM); 0.91 in the assay with Doramapimod + Foretinib (first compound 2 µM); 0.964 with RAF265 + Alpelisib (first compound 0.01 µM). The relative viability with RAF265 + Alpelisib (first compound 0.03162 µM) is 0.907; with RAF265 + Alpelisib (first compound 0.1 µM), 0.854; with RAF265 + Alpelisib (first compound 0.3162 µM) it was 0.35; in the assay with RAF265 + Alpelisib (first compound 1 µM), 0.579; with IPA-3 + Pemetrexed (first compound 0.2 µM), 0.123; with IPA-3 + Pemetrexed (first compound 0.6325 µM) it was 0.132. The relative viability was 0.135 with IPA-3 + Pemetrexed (first compound 2 µM); 0.124 with IPA-3 + Pemetrexed (first compound 6.325 µM); 0.132 in the assay with IPA-3 + Pemetrexed (first compound 20 µM); 0.636 with Doramapimod + Pictilisib (first compound 0.02 µM); 0.644 in the assay with Doramapimod + Pictilisib (first compound 0.06325 µM); 0.645 in the assay with Doramapimod + Pictilisib (first compound 0.2 µM). The results for the relative viability with Doramapimod + Pictilisib (first compound 0.6325 µM) and with Doramapimod + Pictilisib (first compound 2 µM) were 0.655 and 0.616, respectively.
Take RERF-LC-KJ: the relative viability with Doramapimod + Foretinib (first compound 0.02 µM) was determined as 0.87; with Doramapimod + Foretinib (first compound 0.06325 µM), 0.955; with Doramapimod + Foretinib (first compound 0.2 µM) it was 0.884; with Doramapimod + Foretinib (first compound 0.6325 µM), 0.9; with Doramapimod + Foretinib (first compound 2 µM), 0.869; in the assay with RAF265 + Alpelisib (first compound 0.01 µM), 0.791. Also, the relative viability with RAF265 + Alpelisib (first compound 0.03162 µM) is 0.573; in the assay with RAF265 + Alpelisib (first compound 0.1 µM) it was 0.851; in the assay with RAF265 + Alpelisib (first compound 0.3162 µM) it was 0.625; with RAF265 + Alpelisib (first compound 1 µM), 0.584; in the assay with IPA-3 + Pemetrexed (first compound 0.2 µM) it was 0.487; with IPA-3 + Pemetrexed (first compound 0.6325 µM), 0.46. Besides, the relative viability with IPA-3 + Pemetrexed (first compound 2 µM) was 0.482; with IPA-3 + Pemetrexed (first compound 6.325 µM), 0.489; with IPA-3 + Pemetrexed (first compound 20 µM), 0.566; with Doramapimod + Pictilisib (first compound 0.02 µM) it was 0.569; with Doramapimod + Pictilisib (first compound 0.06325 µM) it was 0.536; with Doramapimod + Pictilisib (first compound 0.2 µM), 0.56. Also, the relative viability in the assay with Doramapimod + Pictilisib (first compound 0.6325 µM) worked out at 0.581; with Doramapimod + Pictilisib (first compound 2 µM) it was 0.55.
As for SK-LU-1, the relative viability was 0.805 with Doramapimod + Foretinib (first compound 0.02 µM); 0.82 in the assay with Doramapimod + Foretinib (first compound 0.06325 µM); 0.847 with Doramapimod + Foretinib (first compound 0.2 µM); 0.873 in the assay with Doramapimod + Foretinib (first compound 0.6325 µM); 0.759 in the assay with Doramapimod + Foretinib (first compound 2 µM); 0.972 with RAF265 + Alpelisib (first compound 0.01 µM). Further, the relative viability with RAF265 + Alpelisib (first compound 0.03162 µM) was 0.494; with RAF265 + Alpelisib (first compound 0.1 µM), 0.493; with RAF265 + Alpelisib (first compound 0.3162 µM) it was 0.506; in the assay with RAF265 + Alpelisib (first compound 1 µM) it was 0.363; in the assay with IPA-3 + Pemetrexed (first compound 0.2 µM) it was 1.16; with IPA-3 + Pemetrexed (first compound 0.6325 µM) it was 0.938. Further, the relative viability worked out at 1.01 in the assay with IPA-3 + Pemetrexed (first compound 2 µM); 0.926 in the assay with IPA-3 + Pemetrexed (first compound 6.325 µM); 1.14 in the assay with IPA-3 + Pemetrexed (first compound 20 µM); 0.511 in the assay with Doramapimod + Pictilisib (first compound 0.02 µM); 0.627 with Doramapimod + Pictilisib (first compound 0.06325 µM); 0.657 with Doramapimod + Pictilisib (first compound 0.2 µM). Also, the relative viability in the assay with Doramapimod + Pictilisib (first compound 0.6325 µM) was 0.726; with Doramapimod + Pictilisib (first compound 2 µM) it was 0.603.
SK-MES-1: the relative viability stood at 0.965 in the assay with Doramapimod + Foretinib (first compound 0.02 µM); 0.864 with Doramapimod + Foretinib (first compound 0.06325 µM); 0.773 in the assay with Doramapimod + Foretinib (first compound 0.2 µM); 1.04 with Doramapimod + Foretinib (first compound 0.6325 µM); 0.816 with Doramapimod + Foretinib (first compound 2 µM); 0.942 with RAF265 + Alpelisib (first compound 0.01 µM). Moreover, the relative viability with RAF265 + Alpelisib (first compound 0.03162 µM) was determined as 0.807; in the assay with RAF265 + Alpelisib (first compound 0.1 µM), 0.337; in the assay with RAF265 + Alpelisib (first compound 0.3162 µM) it was 0.242; in the assay with RAF265 + Alpelisib (first compound 1 µM) it was 0.183; in the assay with IPA-3 + Pemetrexed (first compound 0.2 µM) it was 1.04; in the assay with IPA-3 + Pemetrexed (first compound 0.6325 µM) it was 0.886. Besides, the relative viability in the assay with IPA-3 + Pemetrexed (first compound 2 µM) came to 0.991; with IPA-3 + Pemetrexed (first compound 6.325 µM), 0.824; with IPA-3 + Pemetrexed (first compound 20 µM), 0.918; with Doramapimod + Pictilisib (first compound 0.02 µM), 0.405; with Doramapimod + Pictilisib (first compound 0.06325 µM) it was 0.282; in the assay with Doramapimod + Pictilisib (first compound 0.2 µM) it was 0.304. Besides, the relative viability is 0.291 with Doramapimod + Pictilisib (first compound 0.6325 µM) and 0.269 with Doramapimod + Pictilisib (first compound 2 µM).
As for SW 1573, the relative viability with Doramapimod + Foretinib (first compound 0.02 µM) turned out to be 0.862; with Doramapimod + Foretinib (first compound 0.06325 µM) it was 0.769; with Doramapimod + Foretinib (first compound 0.2 µM) it was 0.749; with Doramapimod + Foretinib (first compound 0.6325 µM) it was 0.836; with Doramapimod + Foretinib (first compound 2 µM), 0.663; in the assay with RAF265 + Alpelisib (first compound 0.01 µM), 1. Moreover, the relative viability with RAF265 + Alpelisib (first compound 0.03162 µM) was 0.638; in the assay with RAF265 + Alpelisib (first compound 0.1 µM), 0.645; with RAF265 + Alpelisib (first compound 0.3162 µM), 0.574; in the assay with RAF265 + Alpelisib (first compound 1 µM) it was 0.343; with IPA-3 + Pemetrexed (first compound 0.2 µM), 0.964; with IPA-3 + Pemetrexed (first compound 0.6325 µM), 0.87. Further, the relative viability with IPA-3 + Pemetrexed (first compound 2 µM) came out at 0.921; in the assay with IPA-3 + Pemetrexed (first compound 6.325 µM), 0.906; with IPA-3 + Pemetrexed (first compound 20 µM), 0.162; with Doramapimod + Pictilisib (first compound 0.02 µM), 0.448; in the assay with Doramapimod + Pictilisib (first compound 0.06325 µM), 0.375; in the assay with Doramapimod + Pictilisib (first compound 0.2 µM), 0.408. Besides, the figures for the relative viability with Doramapimod + Pictilisib (first compound 0.6325 µM) and in the assay with Doramapimod + Pictilisib (first compound 2 µM) were 0.423 and 0.379, respectively.

(Values after the supplement of paper PMC10307832.)
